Results: ChEMBL document CHEMBL3046429, “Synthesis, molecular modeling study, preliminary antibacterial, and antitumor evaluation of N-substituted naphthalimides and their structural analogues” (2013)
Converted amounts (≈) assume the structure as drawn.

Key:
Type in all cases: functional
[1] = tested on: MOLT-4; experiment: Growth inhibition of Homo sapiens (human) MOLT4 cells at 10 uM after 48 hr by coulter counter analysis; conditions: MOLT-4, 48 h, read-out: GI
[2] = tested on: SNB-75; experiment: Growth inhibition of Homo sapiens (human) SNB75 cells at 10 uM after 48 hr by coulter counter analysis; conditions: SNB-75, 48 h, read-out: GI
[3] = tested on: HT-29; experiment: Growth inhibition of Homo sapiens (human) HT-29 cells at 10 uM after 48 hr by coulter counter analysis; conditions: HT-29, 48 h, read-out: GI
[4] = tested on: SK-MEL-2; experiment: Growth inhibition of Homo sapiens (human) SK-MEL-2 cells at 10 uM after 48 hr by coulter counter analysis; conditions: SK-MEL-2, 48 h, read-out: GI
[5] = tested on: RXF 393; experiment: Growth inhibition of Homo sapiens (human) RXF393 cells at 10 uM after 48 hr by coulter counter analysis; conditions: RXF 393, 48 h, read-out: GI
[6] = tested on: SF-539; experiment: Growth inhibition of Homo sapiens (human) SF539 cells at 10 uM after 48 hr by coulter counter analysis; conditions: SF-539, 48 h, read-out: GI
[7] = tested on: MDA-MB-231; experiment: Growth inhibition of Homo sapiens (human) MDA-MB-231/ATCC cells at 10 uM after 48 hr by coulter counter analysis; conditions: MDA-MB-231, 48 h, read-out: GI
[8] = tested on: K562; experiment: Growth inhibition of Homo sapiens (human) K562 cells at 10 uM after 48 hr by coulter counter analysis; conditions: K562, 48 h, read-out: GI
[9] = tested on: COLO 205; experiment: Growth inhibition of Homo sapiens (human) COLO205 cells at 10 uM after 48 hr by coulter counter analysis; conditions: COLO 205, 48 h, read-out: GI
[10] = tested on: CAKI-1; experiment: Growth inhibition of Homo sapiens (human) CAKI-1 cells at 10 uM after 48 hr by coulter counter analysis; conditions: CAKI-1, 48 h, read-out: GI
[11] = tested on: SK-OV-3; experiment: Growth inhibition of Homo sapiens (human) SKOV3 cells at 10 uM after 48 hr by coulter counter analysis; conditions: SK-OV-3, 48 h, read-out: GI
[12] = tested on: CCRF-CEM; experiment: Growth inhibition of Homo sapiens (human) CCRF-CEM cells at 10 uM after 48 hr by coulter counter analysis; conditions: read-out: GI
[13] = tested on: MDA-MB-468; experiment: Growth inhibition of Homo sapiens (human) MDA-MB-468 cells at 10 uM after 48 hr by coulter counter analysis; conditions: MDA-MB-468, 48 h, read-out: GI
[14] = tested on: SNB-19; experiment: Growth inhibition of Homo sapiens (human) SNB19 cells at 10 uM after 48 hr by coulter counter analysis; conditions: SNB-19, 48 h, read-out: GI
[15] = tested on: HCT-116; experiment: Growth inhibition of Homo sapiens (human) HCT116 cells at 10 uM after 48 hr by coulter counter analysis; conditions: HCT-116, 48 h, read-out: GI
[16] = tested on: HCC 2998; experiment: Growth inhibition of Homo sapiens (human) HCC2998 cells at 10 uM after 48 hr by coulter counter analysis; conditions: HCC 2998, 48 h, read-out: GI
[17] = tested on: Escherichia coli; experiment: Antibacterial activity against Escherichia coli assessed as growth inhibition after 24 hr by two-fold serial dilution method
[18] = tested on: HOP-92; experiment: Growth inhibition of Homo sapiens (human) HOP92 cells at 10 uM after 48 hr by coulter counter analysis; conditions: HOP-92, 48 h, read-out: GI
[19] = tested on: OVCAR-4; experiment: Growth inhibition of Homo sapiens (human) OVCAR4 cells at 10 uM after 48 hr by coulter counter analysis; conditions: OVCAR-4, 48 h, read-out: GI
[20] = tested on: PC-3; experiment: Growth inhibition of Homo sapiens (human) PC3 cells at 10 uM after 48 hr by coulter counter analysis; conditions: PC-3, 48 h, read-out: GI

SMILES: O=C1c2nccnc2C(=O)N1c1c(Cl)cc(Cl)cc1Cl
- inhibition of growth at 10 µM [1]: 1.21%
- inhibition of growth at 10 µM [2]: 47.4%
- inhibition of growth at 10 µM [3]: 4.24%
- inhibition of growth at 10 µM [4]: -0.16%
- inhibition of growth at 10 µM [5]: -25.2%
- inhibition of growth at 10 µM [6]: 8.66%
- inhibition of growth at 10 µM [7]: 7.23%
- inhibition of growth at 10 µM [8]: 10.1%
- inhibition of growth at 10 µM [9]: 8.27%
- inhibition of growth at 10 µM [10]: 18%
- inhibition of growth at 10 µM [11]: 4.55%
- inhibition of growth at 10 µM [12]: 3.38%
- inhibition of growth at 10 µM [13]: 17.8%
- inhibition of growth at 10 µM [14]: -2.3%
- inhibition of growth at 10 µM [15]: 1.17%
- inhibition of growth at 10 µM [16]: -4.24%
- -logMIC [17]: 4.68
- MIC ([17]; Escherichia coli, 24 h): 6.9 µg/mL (≈ 21 µM)
- inhibition of growth at 10 µM [18]: 57.1%
- inhibition of growth at 10 µM [19]: -0.64%
- inhibition of growth at 10 µM [20]: 22.7%
